≈ marks a conversion by molar mass, not a printed value. Some results are limits rather than exact numbers.

Drawing on ChEMBL document CHEMBL4229535, “Design, synthesis and evaluation of oxime-functionalized nitrofuranylamides as novel antitubercular agents” (2018), this text covers MIC90 for 13 compounds.

This assay deals with Mycobacterium tuberculosis. The experiment in a line: Antimycobacterial activity against Mycobacterium tuberculosis H37Rv ATCC 27294 after 7 days by microplate alamar blue assay. It counts as functional. Conditions: H37Rv ATCC 27294, 168 h. For orientation: The colour change of resazurin is a common sign of viable cells or microbes.
As for `O=C(c1ccc([N+](=O)[O-])o1)N1CCc2ccccc21`, the MIC90 (as a rule, the lowest concentration that inhibits either 90% of growth or 90% of the strains tested, depending on the study) turned out to be 0.482 µg/mL (≈ 1.87 µM).
The figure for `O=C(c1ccc([N+](=O)[O-])o1)N1CC/C(=N\OCc2ccccc2)C1` is 0.291 µg/mL (≈ 0.884 µM); for `O=C(c1ccc([N+](=O)[O-])o1)N1CCC(=NOCc2ccc(C(F)(F)F)cc2)CC1` it is greater than 32 µg/mL; for `CON=C1CCN(C(=O)c2ccc([N+](=O)[O-])o2)CC1` it is 1.93 µg/mL (≈ 7.23 µM).
For `O=C(c1ccc([N+](=O)[O-])o1)N1CCC(=NOCc2ccc([N+](=O)[O-])cc2)CC1` the value was greater than 32 µg/mL.
`CCON=C1CCN(C(=O)c2ccc([N+](=O)[O-])o2)CC1` displayed an MIC90 of 14.1 µg/mL (≈ 50.3 µM).
For `O=C(c1ccc([N+](=O)[O-])o1)N1CCC(=NOCc2ccccc2)CC1` the value was 0.158 µg/mL (≈ 0.46 µM); for `O=C(c1ccc([N+](=O)[O-])o1)N1CCC(=NOCc2ccc(OC(F)(F)F)cc2)CC1`, greater than 32 µg/mL; for `CO/N=C1\CCN(C(=O)c2ccc([N+](=O)[O-])o2)C1`, 1.83 µg/mL (≈ 7.22 µM).
For `CCO/N=C1\CCN(C(=O)c2ccc([N+](=O)[O-])o2)C1` the value was greater than 32 µg/mL; for `O=C(c1ccc([N+](=O)[O-])o1)N1CCC(=NOCc2ccc(F)cc2)CC1`, 5.88 µg/mL (≈ 16.3 µM); for `NNC(=O)c1ccncc1` [ISONIAZID], 0.035 µg/mL (≈ 0.255 µM).
Take `CO[C@H]1/C=C/O[C@@]2(C)Oc3c(C)c(O)c4c(O)c(c(/C=N/N5CCN(C)CC5)c(O)c4c3C2=O)NC(=O)/C(C)=C\C=C\[C@H](C)[C@H](O)[C@@H](C)[C@@H](O)[C@@H](C)[C@H](OC(C)=O)[C@@H]1C` [RIFAMPIN]: the MIC90 was 0.059 µg/mL (≈ 0.0717 µM).
